This note sets out measurements from patent US11911394B2, “Compound and method for the prevention of transmission of influenza virus” (Hoffmann-La Roche Inc., priority 2019, dated 2024).

The data set in a line: Example 5 pharmacokinetic analysis in ferret, plasma concentration by LC-MS/MS. It is filed as in vivo. On the procedure:
Outbred female and ferrets 28 months old and weighing between 650-802 g were obtained from Japan SLC, Inc. Identification was conducted by labeling sequential number in front of each cage. Animals were monitored at least once daily for their clinical observations, and had ad libitum access to pellet feed (LabDiet High Density Ferret Diet, Lab Supply, USA) and water. Ferrets at endpoint were euthanized by exsanguination under anesthesia by inhalation with isoflurane (Pfizer). Ferret studies were performed in Shionogi Pharmaceutical Research Center, Shionogi & Co., Ltd. (Osaka, Japan), according to the animal study protocol which was approved by the Institutional Animal Care and Use Committee in Shionogi.
The active form baloxavir acid (S-033447, hereafter BXA) was provided by Test Substance Control Personnel, Shionogi & Co., Ltd., Japan. The vehicle for BXA delivery was methyl cellulose (Fuji-Film Wako, Japan) in 0.5 w/v % aqueous solution prepared with sterile water (hereafter MC solution). BXA in suspension with MC solution (1 mg/mL) was prepared using an agate mortar and pestle, and was delivered to reversibly anaesthetised animals in a single treatment consisting of 4 subcutaneous injections at 4 locations on the dorsal region (total dose 4 mg/kg per animal). […]
The plasma concentration of BXA was determined by LC-MS/MS, consisting of LC-20A system (Shimadzu Corporation, Japan) and API 5000 (AB SCIEX, USA). […]
Precursor/product transitions (m/z) of 484/247 and 490/247 were monitored for BXA and internal standard, BXA-racemate-d4^18O, respectively. […]
The plasma concentrations of BXA for each individual ferret were calculated by Analyst software (AB SCIEX, USA). The mean value and standard deviation were also calculated using individual data by Microsoft Excel (Microsoft Co., USA).

As to `O=C1c2c(O)c(=O)ccn2N([C@@H]2c3ccccc3SCc3c2ccc(F)c3F)[C@@H]2COCCN12` [baloxavir, baloxavir acid], the concentration at 168 h (plasma, subcutaneous, single s.c. suspension 4 mg/kg, 168 hours postdose, read-out: mean plasma concentration at last sampling point) was found to be 9.08 ng/mL. The “time at which mean plasma concentration reached the maximum” value (single s.c. suspension 4 mg/kg) is 3 hours postdose. Moreover, where the note is “single s.c. suspension 4 mg/kg (4 locations, 1 mg/kg per location), 3 hours postdose”, the “mean plasma concentration, maximum” value was 26.1 ng/mL.
